Test results taken from patent US20240099298A1, “BIOINSECTICIDAL COMPOSITIONS CONTAINING MONOTERPENES AND METHODS OF USE THEREOF” (priority 2017, published 2024).
Values after ≈ are worked out from the molar mass of the structure shown.

How the values were obtained:
[1] = test system: B. cucuribitae (melon fly); assay: Median lethal time (LT50) test, melon fly; type: in vivo, Bactrocera cucuribitae
From the text: (§1) All treatments and controls were in triplicate.
(§2) Toxicity of Monoterpenes as Fumigants. […] Therefore, to determine how fast the monoterpenes act as fumigants, it was necessary to determine their LT50 values for the target organisms.

[2] = test system: T. castaneum (red flour beetle); assay: Median lethal time (LT50) test, red flour beetle; type: in vivo, Tribolium castaneum
From the text: as §1, §2

M. domestica (housefly) = assay: Median lethal time (LT50) test, housefly; type: in vivo, Musca domestica
From the text: as §1, §2

[3] = test system: T. chilonis (parasitic wasp); conditions: non-target parasitic wasp, mortality after 15 minutes of exposure
From the text: (§3) Insect Egg Parasitic Wasp (Natural Enemy). […] Both species were purchased from a commercial source. One- to two-day-old adults (after eclosion) were used for fumigation tests.
Median Lethal Concentration Tests. […] The species tested included Thrips (M. usitatus), spider mite (T. cinnabarinus), melon fly (B. cucuribitae), cockroach (B. lateralis), housefly (M. domestica), mosquito (A. aegypti), parasitic wasp (T. chilonis) and fruit fly (Drosophila melanogaster). After being exposed to the test chemicals for one hour, adult Thrips, spider mites, and roaches were transferred to another flask. In addition to fresh water, adult Thrips, spider mites, and roaches were then respectively fed with cowpea, fresh blade of eggplant, and peanut oil via filter. […] Mortality of melon fly was observed after three hours of exposure.

[4] = test system: A. japonicus (parasitic wasp); assay: Median lethal time (LT50) test, parasitic wasp (natural enemy); conditions: non-target parasitic wasp
Experimental: as §3
Median Lethal Time (LT50) and Median Knockdown Concentration (KC50) Tests. Five species of adult insects or natural enemies were tested for LT50 values including melon fly (B. cucuribitae), red flour beetle (T. castaneum), Nitidulidae beetle (H. picinus), parasitic wasp (A. japonicus) and housefly (M. domestica). For each treatment and control, 20 insects at the developmental stages described above were placed individually without food in a 1-L wide-mouth glass bottle (height 19.5 cm, bottom diameter 10.5 cm, mouth i.d. 5.5 cm) containing pieces of tissue paper. […] Five different concentrations of the test chemicals were placed on pieces of cellulose-based qualitative filter paper. Each of the filter papers was placed in a bottle to have 5 appropriate concentrations in serial dilutions. DDVP was the positive control, and no chemical treatments were the negative control. All treatments and controls were in triplicate. Mortality was observed periodically in a 10-30 minute interval for 2 days or until all insects died. The death was defined as no movement when the insects were touched.

[5] = test system: Frankliniella occidentalis second-instar nymphs; assay: whole plant or invertebrate; conditions: 24 h, second-instar nymphs of F. occidentalis, 24 h after treatment
Experimental: Chemicals. […] These monoterpenes and the positive control spinosyn A (Bosite Technology, Chongqing, China) were dissolved in acetone (10 g/L).
Insects. F. occidentalis Thrips were provided by the Institute of Vegetables and Flowers, Chinese Academy of Agricultural Sciences (Beijing, China), and kept in a box (19 cm×14 cm×20 cm) at 27±1° C., humidity of 50%-60% and a photoperiod of 16:8 h (light:dark). The population was established with sword beans (Canavalia gladiata). Second-instar nymphs with the same growth were tested.
Insect Assays. […] The leaf blade (2 cm×3 cm) was immersed in the solution for 10 s in the test solution, and then air-dried until there were no water drops on the surface. The concentrations were the same as those used in the insecticide-impregnated membrane method. After the chemical film had been formed for 2 h, the infusion leaves were placed in the bottles. The second-instar nymphs were picked with a soft writing brush to make up ten insects per bottle. The bottles were sealed with plastic wrap. 1% Triton X-100 (m/V) aqueous solution as a blank control. Each treatment was repeated four times. The bottles were placed under temperature of 27±1° C., humidity of 50%-60% and photoperiod of 16:8 h (light:dark). […] The insects were touched with a soft brush and numbers of dead and living Thrips were recorded, followed by calculation of the mortality rates.

[6] = molecular target: recombinant gamma-aminobutyric acid receptor-associated protein (rGABARAP) (Frankliniella occidentalis, UniProt A0A6J1T1Q2); assay: Microscale thermophoresis (MST) binding to rGABARAP; conditions: rGABARAP; read-out: Kd value, MST
recombinant gamma-aminobutyric acid receptor-associated protein (rGABARAP), sequence (A0A6J1T1Q2 1-118): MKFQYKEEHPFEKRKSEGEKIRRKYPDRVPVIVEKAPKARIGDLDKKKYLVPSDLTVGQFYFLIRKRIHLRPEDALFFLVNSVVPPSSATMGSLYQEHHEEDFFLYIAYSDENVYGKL
From the text: Preparation of recombinant GABARAP (rGABARAP) protein. RNA was extracted from F. occidentalis and cDNA was then synthesized. GABARAP (GenBank accession No. LOC113211372) was obtained after PCR amplification (Stafford-Banks, et al. (2014) Plos One 9:e94447).
Interaction between ME and rGABARAP. A Nano Temper Monolith NT.115 MST system (Nano Temper, Munich, Germany) was used to assess the binding affinities between the target compounds and rGABARAP according to the published procedures (Zan, et al. (2020) Journal of Agricultural and Food Chemistry 68:6280-6285). Spinosyn A was used as a chemical positive control. Spinosyn A (≥1 nM) can trigger a change of the Cl^− current of insect neuron GABAAR, which is considered to be an insecticidal action mechanism of spinosyn A (Watson (2001) Pesticide Biochemistry and Physiology 71:20-28). Ovalbumin (OVA) (Sangon Biotech, Shanghai, China) is a control protein consisting of 385 amino acid residues. The interaction between OVA and ME was used as a protein control experiment (Huntington, et al. (1995) Protein Science 4:613-621).

[7] = T 22-25 °C; cited from earlier work
adult T. palmi = conditions: cited from earlier work

C=CC(C)(O)CCC=C(C)C (centres unmarked) [Linalool, 3,7-dimethylocta-1,6-dien-3-o1]
LT50 (fiducial limits) [1]: 2.05 h
LT50 (fiducial limits) [2]: 35.1 h
LT50 (fiducial limits) (M. domestica (housefly)): 1.28 h
LC50 (fiducial limits) against T. chilonis [3]: 2.88 µg/mL (≈ 18.7 µM)
LC90 (fiducial limits) against T. chilonis [3]: 6.24 µg/mL (≈ 40.5 µM)
LT50 (fiducial limits) against A. japonicus [4]: 0.788 (0.71-0.86) hour
LC50 [5]: 7 µg/mL (≈ 45.4 µM)
Kd [6]: 12.3 µM
Vp (Pa)/T (° C.) [7]: 21.28/22-25 Pa
LC50, fumigation toxicity (adult T. palmi): 5.5 µg/mL (≈ 35.7 µM)
fold more effective than dichlorvos (adult T. palmi): 15.2 fold
